Legend:
[1] = target: T1, Probable G-protein coupled receptor 139 (Homo sapiens, UniProt Q6DWJ6); test: Agonist activity at human GPR139 expressed in CHO-K1 cells assessed as increase in calcium flux by calcium 5 dye based FLIPR assay; type: functional, cell-based
T1 sequence (Q6DWJ6 whole entry): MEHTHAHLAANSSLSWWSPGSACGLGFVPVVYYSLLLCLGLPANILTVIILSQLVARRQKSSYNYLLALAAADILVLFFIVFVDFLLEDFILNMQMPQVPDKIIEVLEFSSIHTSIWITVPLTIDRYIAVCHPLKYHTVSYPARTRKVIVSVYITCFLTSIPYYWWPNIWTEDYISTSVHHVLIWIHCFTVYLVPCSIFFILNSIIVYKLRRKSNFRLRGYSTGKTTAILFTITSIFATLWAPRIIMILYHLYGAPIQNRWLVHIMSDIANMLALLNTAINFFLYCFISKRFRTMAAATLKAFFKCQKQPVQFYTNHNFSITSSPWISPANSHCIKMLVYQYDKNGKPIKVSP

[2] = target: T2, Probable G-protein coupled receptor 139 (Homo sapiens) (UniProt Q6DWJ6); test: Agonist activity at human GPR139 expressed in CHO-K1 cells assessed as increase in calcium flux by calcium 5 dye based FLIPR assay relative to JNJ63533054; type: functional, cell-based; details: filed as agonist
T2 sequence (whole entry): T1 sequence (Q6DWJ6 whole entry)

[3] = target: T3, Probable G-protein coupled receptor 139 (Rattus norvegicus, UniProt P0C0W8); test: Agonist activity at rat GPR139 expressed in CHO-K1 cells assessed as increase in calcium flux by calcium 5 dye based FLIPR assay; type: cell-based
T3 sequence (P0C0W8 whole entry): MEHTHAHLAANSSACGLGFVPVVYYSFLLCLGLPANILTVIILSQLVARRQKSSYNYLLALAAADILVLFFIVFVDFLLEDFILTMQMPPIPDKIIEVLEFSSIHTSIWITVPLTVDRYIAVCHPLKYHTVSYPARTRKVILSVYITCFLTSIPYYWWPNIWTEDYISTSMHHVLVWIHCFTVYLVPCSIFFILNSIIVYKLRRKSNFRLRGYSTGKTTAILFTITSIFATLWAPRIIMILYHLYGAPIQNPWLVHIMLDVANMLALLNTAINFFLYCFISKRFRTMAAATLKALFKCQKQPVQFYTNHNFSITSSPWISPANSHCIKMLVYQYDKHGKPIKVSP

[4] = target: T4, Probable G-protein coupled receptor 139 (Rattus norvegicus) (UniProt P0C0W8); test: Agonist activity at rat GPR139 expressed in CHO-K1 cells assessed as increase in calcium flux by calcium 5 dye based FLIPR assay relative to JNJ63533054; type: cell-based
T4 sequence (whole entry): T3 sequence (P0C0W8 whole entry)

[5] = target: T1, Probable G-protein coupled receptor 139; test: Agonist activity at human GPR139 expressed in CHO-K1 cells assessed as induction of beta-arrestin 2 recruitment incubated for 90 mins by PathHunter assay; type: cell-based
[6] = target: T2, Probable G-protein coupled receptor 139 (Homo sapiens); test: Agonist activity at human GPR139 expressed in CHO-K1 cells assessed as induction of beta-arrestin 2 recruitment incubated for 90 mins by PathHunter assay relative to JNJ63533054; type: cell-based

Structure (SMILES) | EC50 [1] [nM] | Emax [2] [%] | EC50 [3] [nM] | Emax [4] [%] | EC50 [5] [nM] | Emax [6] [%] | EC50 ([1]; cho-k1) [nM] | EC50 ([3]; cho-k1) [nM] | Emax ([4]; filed as agonist) [%] | Emax ([6]; filed as agonist) [%] | EC50 ([5]; cho-k1) [nM]
Cc1ccc([C@H](C)NC(=O)Cn2nc3c(C4CCN(C)C4)cccn3c2=O)cc1 (some centres not stated) | ≥ 100 | 50 | ≥ 100 | 25 | ≥ 100 | 25 |  |  |  |  | 
C[C@H](NC(=O)Cn1nc2cc(N3CCC[C@H](O)C3)ccn2c1=O)c1ccc(OC(F)(F)F)cc1 |  | > 80 |  |  | ≥ 100 |  | 1 | 1 | > 80 | > 80 | 
COc1ccn2c(=O)n(CC(=O)N[C@@H](C)c3ccc(C)cc3)nc2c1 | < 1 | > 80 | < 1 |  |  |  |  |  | 50 | 50 | 1
C[C@H](NC(=O)Cn1nc2cc(N3CCOCC3)ccn2c1=O)c1ccc(OC(F)(F)F)cc1 |  | > 80 |  |  | ≥ 100 |  | 1 | 1 | > 80 | 50 | 
C[C@H](NC(=O)Cn1nc2c(NCC(F)F)ccnn2c1=O)c1ccc(OC(F)(F)F)cc1 | < 1 | > 80 |  | 25 |  | 25 |  | 1 |  |  | 1
C[C@H](NC(=O)Cn1nc2cc(N3CCN(C)CC3)ccn2c1=O)c1ccc(OC(F)(F)F)cc1 | ≥ 100 | 50 | ≥ 100 |  | ≥ 100 | 25 |  |  | 50 |  | 
Cc1ccc([C@H](C)NC(=O)Cn2nc3cccc(F)n3c2=O)cc1 |  | > 80 |  | 25 |  |  | 1 | 1 |  | 50 | 10
C[C@H](NC(=O)Cn1nc2ncc(C3CC3)cn2c1=O)c1ccc(Cl)c(F)c1 | < 1 | > 80 |  |  |  |  |  | 10 | 50 | 50 | 1
COc1ccc2nn(CC(=O)N[C@@H](C)c3ccc(Cl)cc3)c(=O)n2n1 | < 1 | > 80 | ≥ 100 | 25 | < 1 | 25 |  |  |  |  | 
Cc1ccc([C@H](C)NC(=O)Cn2nc3ncccn3c2=O)cc1Cl |  | > 80 |  |  | ≥ 100 |  | 1 | 10 | > 80 | > 80 | 
CC[C@H](NC(=O)Cn1nc2cccnn2c1=O)c1ccc(Cl)c(F)c1 |  | > 80 |  |  | ≥ 100 | 25 | 1 | 1 | > 80 |  | 
Cc1ncc([C@H](C)NC(=O)Cn2nc3cc(Cl)ccn3c2=O)cc1F |  | > 80 |  | 25 |  |  | 1 | 1 |  | 50 | 10
Cc1ccc([C@H](C)NC(=O)Cn2nc3cccnn3c2=O)cc1 |  | > 80 |  |  | ≥ 100 | 25 | 10 | 1 | 50 |  | 
C[C@H](NC(=O)[C@@H](C)n1nc2ncccn2c1=O)c1ccc(Cl)c(F)c1 |  | > 80 |  |  |  |  | 1 | 1 | 50 | 50 | 10
C[C@H](NC(=O)Cn1nc2ccc(Cl)nn2c1=O)c1ccc(OC(F)(F)F)cc1 |  | 50 |  | 25 |  | 25 | 1 | 1 |  |  | 10
C[C@H](NC(=O)Cn1nc2ncccn2c1=O)c1ccc(C2CC2)c(F)c1 |  | > 80 |  | 25 | ≥ 100 |  | 1 | 10 |  | 50 | 
C[C@H](NC(=O)Cn1nc2ncccn2c1=O)c1ccc(C2CC2)cc1 | ≥ 100 | 50 | ≥ 100 | < 25 | ≥ 100 | < 25 |  |  |  |  | 
C[C@H](NC(=O)Cn1nc2cccc(N3CCCCC3)n2c1=O)c1ccc(OC(F)(F)F)cc1 | < 1 | 50 |  |  | < 1 |  |  | 1 | 50 | 50 | 
C[C@H](NC(=O)Cn1nc2cc(N3CCOCC3)cnn2c1=O)c1ccc(Cl)c(F)c1 |  | > 80 |  |  | ≥ 100 | 25 | 1 | 1 | > 80 |  | 

Structure (SMILES) | EC50 [1] [nM] | Emax [2] [%] | EC50 [3] [nM] | Emax [4] [%] | EC50 [5] [nM] | Emax [6] [%] | EC50 ([1]; cho-k1) [nM] | EC50 ([3]; cho-k1) [nM] | Emax ([4]; filed as agonist) [%] | Emax ([6]; filed as agonist) [%] | EC50 ([5]; cho-k1) [nM]
COc1cnn2c(=O)n(CC(=O)N[C@@H](C)c3ccc(Cl)c(F)c3)nc2c1 | < 1 | > 80 | < 1 |  |  |  |  |  | > 80 | > 80 | 1
Cc1ccc([C@H](C)NC(=O)Cn2nc3c(C)ccnn3c2=O)cc1F | < 1 | > 80 |  |  |  |  |  | 1 | > 80 | > 80 | 10
C[C@H](NC(=O)Cn1nc2ncc(F)cn2c1=O)c1ccc(OC(F)(F)F)cc1 |  | > 80 | ≥ 100 | 25 | ≥ 100 | 25 | 1 |  |  |  | 
C[C@H](NC(=O)Cn1nc2cccc(N3CCN(C)CC3)n2c1=O)c1ccc(OC(F)(F)F)cc1 |  | > 80 | ≥ 100 | 25 | ≥ 100 |  | 1 |  |  | 50 | 
C[C@H](NC(=O)Cn1nc2cc(Cl)ccn2c1=O)c1ccc(OC(F)(F)F)cc1 | < 1 | > 80 | < 1 |  | < 1 |  |  |  | 50 | 50 | 
C[C@H](NC(=O)Cn1nc2c(OC3CN(C)C3)nccn2c1=O)c1ccc(Cl)c(F)c1 | ≥ 100 | 50 | ≥ 100 |  | ≥ 100 | 25 |  |  | > 80 |  | 
Cc1cnc2nn(CC(=O)N[C@@H](C)c3ccc(OC(F)(F)F)cc3)c(=O)n2c1 |  | 50 | ≥ 100 | 25 | ≥ 100 | 25 | 1 |  |  |  | 
C[C@H](NC(=O)Cn1nc2c(I)ccnn2c1=O)c1ccc(OC(F)(F)F)cc1 | < 1 | 50 |  |  | ≥ 100 | < 25 |  | 10 | 25 |  | 
Cc1ccc([C@H](C)NC(=O)Cn2nc3ccc(F)cn3c2=O)cc1 | < 1 | > 80 | < 1 |  |  |  |  |  | > 80 | 50 | 10
C[C@@H](NC(=O)Cn1nc2ccccn2c1=O)c1ccc(Cl)c(F)c1 | ≥ 100 | > 80 | < 1 |  | ≥ 100 | 25 |  |  | 50 |  | 
COc1ccn2c(=O)n(CC(=O)N[C@@H](C)c3ccc(Cl)c(F)c3)nc2n1 | < 1 | > 80 | < 1 |  |  |  |  |  | > 80 | > 80 | 1
Cc1ccc2nn(CC(=O)N[C@@H](C)c3ccc(OC(F)(F)F)cc3)c(=O)n2c1 | < 1 | > 80 | < 1 |  |  |  |  |  | 50 | > 80 | 1
C[C@H](NC(=O)Cn1nc2ccc(F)cn2c1=O)c1ccc(Cl)cc1 | < 1 | > 80 | < 1 |  |  |  |  |  | 50 | 50 | 1
Cc1cc([C@H](C)NC(=O)Cn2nc3ccccn3c2=O)ccc1Cl | < 1 | > 80 |  |  |  |  |  | 1 | > 80 | > 80 | 1
Cc1cnc2nn(CC(=O)N[C@@H](C)c3ccc(OC(F)(F)F)c(F)c3)c(=O)n2c1 |  | > 80 |  | 25 |  |  | 1 | 10 |  | 50 | 1
COc1nc2nn(CC(=O)N[C@@H](C)c3ccc(Cl)c(F)c3)c(=O)n2cc1C | < 1 | > 80 | < 1 |  | < 1 |  |  |  | > 80 | > 80 | 
C[C@H](NC(=O)Cn1nc2cccnn2c1=O)c1ccc(Cl)c(Cl)c1 |  | > 80 |  |  |  |  | 1 | 1 | 50 | 50 | 10
Cc1ccn2c(=O)n(CC(=O)N[C@@H](C)c3ccc(Cl)c(F)c3)nc2c1 | < 1 | > 80 | < 1 |  |  |  |  |  | > 80 | > 80 | 1

From ChEMBL document CHEMBL4739716, “Gpr139 receptor modulators” (2020)
